Laboratory results taken from EP4582426A1, “PAN-KRAS INHIBITOR COMPOUND” (Adlai Nortye Biopharma Co., Ltd., priority 2022, dated 2024).

Columns and labels:
AsPC-1 (G12D) = test: In vitro cell proliferation inhibition test (CellTiter-Glo Luminescent Cell Viability Assay); format: cell-based; details: AsPC-1 cell line, Pancreas, KRAS (p.G12D); cells and compounds co-incubated 72 hours
In short: (§1)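 Cells were seeded at 1000-5000/well and cultured overnight, then exposed to compound (top final 10 µM, ten 3-fold dilutions) for 72 h at 37°C, 5% CO2. Viability was read by CellTiter-Glo luminescence; IC50 was obtained from four-parameter fits of normalized signal.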

SW480 (G12V) = test: as above; format: cell-based; details: SW480 cell line, Large intestine; Colon, KRAS (p.G12V); cells and compounds co-incubated 72 hours
In short: as §1

Molecule	IC50 (AsPC-1 (G12D))	IC50 (SW480 (G12V))
CCn1c(-c2cc(C#CCN3CCS(=N)(=O)CC3)cnc2C(C)OC)c2c3cc(ccc31)-c1csc(n1)CC(NC(=O)C1CC1C)C(=O)N1CCCC(N1)C(=O)OCC(C)(C)C2 [Example 57, (1S,2S)-N-((6^3S,4S,Z)-1^1-ethyl-1^2-(5-(3-(1-imino-1-oxido-1l6-thiomorpholino)prop-1-yn-1-yl)-2-((S)-1-methoxyethyl)pyridin-3-yl)-10,10-dimethyl-5,7-dioxo-6^1,6^2,6^3,6^4,6^5,6^6-hexahydro-1^1H-8-oxa-2(4,2)-thiazola-1(5,3)-indola-6(1,3)-pyridazinacycloundecaphane-4-yl)-2-methylcyclopropane-1-carboxamide]	1.9 nM	2 nM
CCn1c(-c2cc(C#CCN(C)C)cnc2C(C)OC)c2c3cc(ccc31)-c1csc(n1)CC(NC(=O)C1C(C)C1C)C(=O)N1CCCC(N1)C(=O)OCC(C)(C)C2 [Example 58, (1r,2R,3S)-N-((6^3S,4S,Z)-1^2-(5-(3-(dimethylamino)prop-1-yn-1-yl)-2-((S)-1-methoxyethyl)pyridin-3-yl)-1^1-ethyl-10,10-dimethyl-5,7-dioxo-6^1,6^2,6^3,6^4,6^5,6^6-hexahydro-1^1H-8-oxa-2(4,2)-thiazola-1(5,3)-indola-6(1,3)-pyridazinacycloundecaphane-4-yl)-2,3-dimethylcyclopropane-1-carboxamide]	0.7 nM	0.24 nM
CCn1c(-c2cc(C#CCN3CCCCC3)cnc2[C@H](C)OC)c2c3cc(ccc31)-c1csc(n1)C[C@H](NC(=O)[C@H]1C[C@@H]1C)C(=O)N1CCC[C@H](N1)C(=O)OCC(C)(C)C2 [Example 59, (1S,2S)-N-((6^3S,4S,Z)-1^1-ethyl-1^2-(2-((S)-1-methoxyethyl)-5-(3-(piperidin-1-yl)prop-1-yn-1-yl)pyridin-3-yl)-10,10-dimethyl-5,7-dioxo-6^1,6^2,6^3,6^4,6^5,6^6-hexahydro-1^1H-8-oxa-2(4,2)-thiazola-1(5,3)-indola-6(1,3)-pyridazinacycloundecaphane-4-yl)-2-methylcyclopropane-1-carboxamide]	0.96 nM	1.76 nM
CCn1c(-c2cc(C#CCN3CCN(C)CC3)cnc2[C@H](C)OC)c2c3cc(ccc31)-c1csc(n1)C[C@H](NC(=O)[C@H]1C[C@@H]1C)C(=O)N1CCC[C@H](N1)C(=O)OCC(C)(C)C2 [Example 60, (1S,2S)-N-((6^3S,4S,Z)-1^1-ethyl-1^2-(2-((S)-1-methoxyethyl)-5-(3-(4-methylpiperazin-1-yl)prop-1-yn-1-yl)pyridin-3-yl)-10,10-dimethyl-5,7-dioxo-6^1,6^2,6^3,6^4,6^5,6^6-hexahydro-1^1H-8-oxa-2(4,2)-thiazola-1(5,3)-indola-6(1,3)-pyridazinacycloundecaphane-4-yl)-2-methylcyclopropane-1-carboxamide]	1.71 nM	1.55 nM
(1S,2S)-N-((6^3S,4S,Z)-1^1-ethyl-1^2-(2-((S)-1-methoxyethyl)-5-((6-methyl-5,6,7,8-tetrahydropyrido[4,3-d]pyrimidin-2-yl)ethynyl)pyridin-3-yl)-10,10-dimethyl-5,7-dioxo-6^1,6^2,6^3,6^4,6^5,6^6-hexahydro-1^1H-8-oxa-2(4,2)-thiazola-1(5,3)-indola-6(1,3)-pyridazinacycloundecaphane-4-yl)-2-methylcyclopropane-1-carboxamide [Example 44]	16.8 nM	6.3 nM
(1S,2S)-N-((6^3S,4S,Z)-1^1-ethyl-1^2-(2-((S)-1-methoxyethyl)-5-(((S)-4-methyl-1,1-dioxidothiomorpholin-2-yl)ethynyl)pyridin-3-yl)-10,10-dimethyl-5,7-dioxo-6^1,6^2,6^3,6^4,6^5,6^6-hexahydro-1^1H-8-oxa-2(4,2)-thiazola-1(5,3)-indola-6(1,3)-pyridazinacycloundecaphane-4-yl)-2-methylcyclopropane-1-carboxamide [Example 45]	5.3 nM	7.4 nM
(1S,2S)-N-((6^3S,4S,Z)-1^1-ethyl-1^2-(2-((S)-1-methoxyethyl)-5-(pyrimidin-5-ylethynyl)pyridin-3-yl)-10,10-dimethyl-5,7-dioxo-6^1,6^2,6^3,6^4,6^5,6^6-hexahydro-1^1H-8-oxa-2(4,2)-thiazola-1(5,3)-indola-6(1,3)-pyridazinacycloundecaphane-4-yl)-2-methylcyclopropane-1-carboxamide [Example 22]	6.5 nM	19.2 nM
(1S,2S)-N-((6^3S,4S,Z)-1^1-ethyl-1^2-(5-((2-(ethylamino)pyrimidin-5-yl)ethynyl)-2-((S)-1-methoxyethyl)pyridin-3-yl)-10,10-dimethyl-5,7-dioxo-6^1,6^2,6^3,6^4,6^5,6^6-hexahydro-1^1H-8-oxa-2(4,2)-thiazola-1(5,3)-indola-6(1,3)-pyridazinacycloundecaphane-4-yl)-2-methylcyclopropane-1-carboxamide [Example 42]	22.2 nM	6.9 nM
(1S,2S)-N-((6^3S,4S,Z)-1^1-ethyl-1^2-(5-(((R)-4-(2-hydroxyethyl)morpholin-3-yl)ethynyl)-2-((S)-1-methoxyethyl)pyridin-3-yl)-10,10-dimethyl-5,7-dioxo-6^1,6^2,6^3,6^4,6^5,6^6-hexahydro-1^1H-8-oxa-2(4,2)-thiazola-1(5,3)-indola-6(1,3)-pyridazinacycloundecaphane-4-yl)-2-methylcyclopropane-1-carboxamide [Example 33]	2.9 nM	6.5 nM
(1S,2S)-N-((6^3S,4S,Z)-1^2-(5-(3-(1,1-dioxidothiomorpholino)prop-1-yn-1-yl)-2-((S)-1-methoxyethyl)pyridin-3-yl)-1^1-ethyl-10,10-dimethyl-5,7-dioxo-6^1,6^2,6^3,6^4,6^5,6^6-hexahydro-1^1H-8-oxa-2(4,2)-thiazola-1(5,3)-indola-6(1,3)-pyridazinacycloundecaphane-4-yl)-2-methylcyclopropane-1-carboxamide [Example 43]	0.42 nM	0.68 nM
(1S,2S)-N-((6^3S,4S,Z)-1^2-(5-(3-(dimethylamino)prop-1-yn-1-yl)-2-((S)-1-methoxyethyl)pyridin-3-yl)-1^1-ethyl-10,10-dimethyl-5,7-dioxo-6^1,6^2,6^3,6^4,6^5,6^6-hexahydro-1^1H-8-oxa-2(4,2)-thiazola-1(5,3)-indola-6(1,3)-pyridazinacycloundecaphane-4-yl)-2-methylcyclopropane-1-carboxamide [Example 61]	5 nM	1.58 nM
(1S,2S)-N-((63S,4S,Z)-1^1-ethyl-1^2-(2-((S)-1-methoxyethyl)-5-((1-methylpiperidin-4-yl)ethynyl)pyridin-3-yl)-10,10-dimethyl-5,7-dioxo-6^1,6^2,6^3,6^4,6^5,6^6-hexahydro-1^1H-8-oxa-2(4,2)-thiazola-1(5,3)-indola-6(1,3)-pyridazinacycloundecaphane-4-yl)-2-methylcyclopropane-1-carboxamide [Example 29]	1.2 nM	2.8 nM
(1r,2R,3S)-N-((6^3S,4S,Z)-1^1-ethyl-1^2-(5-(3-((R)-3-(hydroxymethyl)morpholino)prop-1-yn-1-yl)-2-((S)-1-methoxyethyl)pyridin-3-yl)-10,10-dimethyl-5,7-dioxo-6^1,6^2,6^3,6^4,6^5,6^6-hexahydro-1^1H-8-oxa-2(4,2)-thiazola-1(5,3)-indola-6(1,3)-pyridazinacycloundecaphane-4-yl)-2,3-dimethylcyclopropane-1-carboxamide [Example 38]	0.07 nM	0.18 nM
(1r,2R,3S)-N-((6^3S,4S,Z)-1^1-ethyl-1^2-(5-(3-((S)-hexahydropyrazino[2,1-c][1,4]oxazin-8(1H)-yl)prop-1-yn-1-yl)-2-((S)-1-methoxyethyl)pyridin-3-yl)-10,10-dimethyl-5,7-dioxo-6^1,6^2,6^3,6^4,6^5,6^6-hexahydro-1^1H-8-oxa-2(4,2)-thiazola-1(5,3)-indola-6(1,3)-pyridazinacycloundecaphane-4-yl)-2,3-dimethylcyclopropane-1-carboxamide [Example 40]	1.35 nM	1.5 nM
(1r,2R,3S)-N-((6^3S,4S,Z)-12-(5-(3-((S)-3-(ethoxymethyl)morpholino)prop-1-yn-1-yl)-2-((S)-1-methoxyethyl)pyridin-3-yl)-1^1-ethyl-10,10-dimethyl-5,7-dioxo-6^1,6^2,6^3,6^4,6^5,6^6-hexahydro-1^1H-8-oxa-2(4,2)-thiazola-1(5,3)-indola-6(1,3)-pyridazinacycloundecaphane-4-yl)-2,3-dimethylcyclopropane-1-carboxamide [Example 37]	1.01 nM	0.68 nM
